Patent US20240409573A1, “CALICHEAMICIN DERIVATIVES AND ANTIBODY DRUG CONJUGATES THEREOF” (priority 2017, published 2024)

Key:
Type in all cases: cell-based
[1] = test system: TF-1 cells, CD33-target expressing; assay: In vitro cell assay, cell viability by MTS, TF-1; settings: Homo sapiens, TF-1, 96 h, read-out: Average IC50, TF-1
Method: (§1) Her2-Target expressing (BT474 (breast cancer), N87 (gastric cancer), MDA-MB-361-DYT2 (breast cancer)) or Her2-non-expressing (MDA-MB-468, HT29) cells, or 0033-target expressing HL60, HEL92.1.7, NB4, TF-1 or 0033-non-expressing (Raji) cells were seeded in 96-well cell culture plates for 24 hours before treatment. Cells were treated with 3-fold serially diluted antibody-drug conjugates or free compounds (i.e., no antibody conjugated to the drug) in duplicate at 10 concentrations. Cell viability was determined by CellTiter 96® AQueous One Solution Cell Proliferation MTS Assay (Promega, Madison WI) 96 hours after treatment. Relative cell viability was determined as percentage of untreated control. IC50 values were calculated using a four parameter logistic model #203 with XLfit v4.2 (IDBS, Guildford, Surry, UK). Results are shown below in Table 3 (for payloads), Table 4 (for Herceptin conjugates), and Table 5 (for CD33 conjugates).

[2] = test system: NB4 cells, CD33-target expressing; assay: In vitro cell assay, cell viability by MTS, NB4; settings: Homo sapiens, NB-4, 96 h, read-out: Average IC50, NB4
Method: as §1

[3] = test system: Raji cells, CD33-non-expressing; assay: In vitro cell assay, cell viability by MTS, Raji; settings: Homo sapiens, 96 h, read-out: Average IC50, Raji
Method: as §1

[4] = test system: HT29 cells, Her2-non-expressing; assay: In vitro cell assay, cell viability by MTS, HT29; settings: Homo sapiens, HT-29, 96 h, read-out: Average IC50, HT29
Method: as §1

[5] = test system: N87 (gastric cancer) cells, Her2-target expressing; assay: In vitro cell assay, cell viability by MTS, N87; settings: 96 h, read-out: Average IC50, N87
Method: as §1

[6] = test system: MDA-MB-361-DYT2 (breast cancer) cells, Her2-target expressing; assay: In vitro cell assay, cell viability by MTS, MDA-MB-361-DYT2; settings: 96 h, read-out: Average IC50, MDA-MB-361-DYT2
Method: as §1

[7] = test system: HL60 cells, CD33-target expressing; assay: In vitro cell assay, cell viability by MTS, HL60; settings: Homo sapiens, HL-60, 96 h, read-out: Average IC50, HL-60
Method: as §1

[8] = test system: HEL92.1.7 cells, CD33-target expressing; assay: In vitro cell assay, cell viability by MTS, HEL92.1.7; settings: Homo sapiens, HEL 92.1.7, 96 h, read-out: Average IC50, HEL92.1.7
Method: as §1

SMILES | IC50 [1] [nM] | IC50 [2] [nM] | IC50 [3] [nM] | IC50 [4] [nM] | IC50 [5] [nM] | IC50 [6] [nM] | IC50 [7] [nM] | IC50 [8] [nM]
CCN[C@H]1CO[C@@H](O[C@H]2[C@H](O[C@H]3C#C/C=C\C#C[C@]4(O)CC(=O)C(NC(=O)OC)=C3/C4=C\CSSC(C)C(=O)OCC)O[C@H](C)[C@@H](NO[C@H]3C[C@H](O)[C@H](SC(=O)c4c(C)c(I)c(O[C@@H]5O[C@@H](C)[C@H](O)[C@@H](OC)[C@H]5O)c(OC)c4OC)[C@@H](C)O3)[C@@H]2O)C[C@@H]1OC (stereo partly shown) [Example P11] | 0.03 | 0.001 | 0.002 | 0.006 | 0.007 | 0.008 | 0.002 | 0.003
CCN[C@H]1CO[C@@H](O[C@@H]2C(O)[C@H](NO[C@H]3C[C@H](O)[C@H](SC(=O)c4c(C)c(I)c(O[C@@H]5O[C@@H](C)[C@H](O)[C@@H](OC)[C@H]5O)c(OC)c4OC)[C@@H](C)O3)[C@@H](C)O[C@H]2O[C@H]2C#C/C=C\C#C[C@]3(O)CC(=O)C(NC(=O)OC)=C2/C3=C\CSSc2ncccc2C(=O)O)C[C@@H]1OC (stereo in doubt) [Example P46] | 0.176 | 0.02 | 0.039 | 0.77 | 0.544 | 2.83 | 0.025 | 0.046
CCN[C@H]1CO[C@@H](O[C@H]2[C@H](O[C@H]3C#C/C=C\C#C[C@]4(O)CC(=O)C(NC(=O)OC)=C3/C4=C\CSSc3ccccn3)O[C@H](C)[C@@H](NO[C@H]3C[C@H](O)[C@H](SC(=O)c4c(C)c(I)c(O[C@@H]5O[C@@H](C)[C@H](O)[C@@H](OC)[C@H]5O)c(OC)c4OC)[C@@H](C)O3)[C@@H]2O)C[C@@H]1OC [Example P4] | 0.184 | 0.011 | 0.056 | 0.094 | 0.086 | 0.033 | 0.017 | 0.036
CCN[C@H]1CO[C@@H](O[C@@H]2C(O)[C@H](NO[C@H]3C[C@H](O)[C@H](SC(=O)c4c(C)c(I)c(O[C@@H]5O[C@@H](C)[C@H](O)[C@@H](OC)[C@H]5O)c(OC)c4OC)[C@@H](C)O3)[C@@H](C)O[C@H]2O[C@H]2C#C/C=C\C#C[C@]3(O)CC(=O)C(NC(=O)OC)=C2/C3=C\CSSC(C)(C)CCC(=O)NCCCC[C@H](N)C(=O)O)C[C@@H]1OC (stereo in doubt) [Example P43] | 9.01 | 0.516 | 2.85 | 3.18 | 1.23 | 6.4 | 1.36 | 4.9
CCN[C@H]1CO[C@@H](O[C@H]2[C@H](O[C@H]3C#C/C=C\C#C[C@]4(O)CC(=O)C(NC(=O)OC)=C3/C4=C\CSSc3ccc(C(=O)O)cc3)O[C@H](C)[C@@H](NO[C@H]3C[C@H](O)[C@H](SC(=O)c4c(C)c(I)c(O[C@@H]5O[C@@H](C)[C@H](O)[C@@H](OC)[C@H]5O)c(OC)c4OC)[C@@H](C)O3)[C@@H]2O)C[C@@H]1OC [Example P13] | 0.331 | 0.023 | 0.022 | 0.792 | 0.536 | 0.982 | 0.044 | 0.039
CCN[C@H]1CO[C@@H](O[C@H]2[C@H](O[C@H]3C#C/C=C\C#C[C@]4(O)CC(=O)C(NC(=O)OC)=C3/C4=C\CSSc3ccccc3)O[C@H](C)[C@@H](NO[C@H]3C[C@H](O)[C@H](SC(=O)c4c(C)c(I)c(O[C@@H]5O[C@@H](C)[C@H](O)[C@@H](OC)[C@H]5O)c(OC)c4OC)[C@@H](C)O3)[C@@H]2O)C[C@@H]1OC [Example P10] | 0.029 | 0.003 | 0.005 | 0.03 | 0.031 | 0.025 | 0.004 | 0.004
CCN[C@H]1CO[C@@H](O[C@H]2[C@H](O[C@H]3C#C/C=C\C#C[C@]4(O)CC(=O)C(NC(=O)OC)=C3/C4=C\CSSC3CCNCC3)O[C@H](C)[C@@H](NO[C@H]3C[C@H](O)[C@H](SC(=O)c4c(C)c(I)c(O[C@@H]5O[C@@H](C)[C@H](O)[C@@H](OC)[C@H]5O)c(OC)c4OC)[C@@H](C)O3)[C@@H]2O)C[C@@H]1OC [Example P16] | 0.15 | 0.015 | 0.077 | 0.035 | 0.023 | 0.045 | 0.024 | 0.071
CCN[C@H]1CO[C@@H](O[C@H]2[C@H](O[C@H]3C#C/C=C\C#C[C@]4(O)CC(=O)C(NC(=O)OC)=C3/C4=C\CSSC(C)(C)C(=O)O)O[C@H](C)[C@@H](NO[C@H]3C[C@H](O)[C@H](SC(=O)c4c(C)c(I)c(O[C@@H]5O[C@@H](C)[C@H](O)[C@@H](OC)[C@H]5O)c(OC)c4OC)[C@@H](C)O3)[C@@H]2O)C[C@@H]1OC [Example P12] | 0.245 | 0.005 | 0.033 | 0.687 | 0.64 | 4.16 | 0.04 | 0.102
CCN[C@H]1CO[C@@H](O[C@H]2[C@H](O[C@H]3C#C/C=C\C#C[C@]4(O)CC(=O)C(NC(=O)OC)=C3/C4=C\CSSc3ccccc3C(=O)O)O[C@H](C)[C@@H](NO[C@H]3C[C@H](O)[C@H](SC(=O)c4c(C)c(I)c(O[C@@H]5O[C@@H](C)[C@H](O)[C@@H](OC)[C@H]5O)c(OC)c4OC)[C@@H](C)O3)[C@@H]2O)C[C@@H]1OC [Example P3] | 1.64 | 0.081 | 0.378 | 0.69 | 0.309 | 1.75 | 0.149 | 0.371
CCN[C@H]1CO[C@@H](O[C@H]2[C@H](O[C@H]3C#C/C=C\C#C[C@]4(O)CC(=O)C(NC(=O)OC)=C3/C4=C\CSSC(C)(C)c3ccc(C(=O)O)cc3)O[C@H](C)[C@@H](NO[C@H]3C[C@H](O)[C@H](SC(=O)c4c(C)c(I)c(O[C@@H]5O[C@@H](C)[C@H](O)[C@@H](OC)[C@H]5O)c(OC)c4OC)[C@@H](C)O3)[C@@H]2O)C[C@@H]1OC [Example P29] | 0.466 | – | 0.015 | 0.036 | 0.17 | 0.025 | 0.025 | –
CCN[C@H]1CO[C@@H](O[C@H]2[C@H](O[C@H]3C#C/C=C\C#C[C@]4(O)CC(=O)C(NC(=O)OC)=C3/C4=C\CSSC(C)(C)c3cccnc3N)O[C@H](C)[C@@H](NO[C@H]3C[C@H](O)[C@H](SC(=O)c4c(C)c(I)c(O[C@@H]5O[C@@H](C)[C@H](O)[C@@H](OC)[C@H]5O)c(OC)c4OC)[C@@H](C)O3)[C@@H]2O)C[C@@H]1OC [Example P26] | 0.036 | – | 0.004 | 0.004 | 0.035 | 0.017 | 0.002 | –
CCN[C@H]1CO[C@@H](O[C@H]2[C@H](O[C@H]3C#C/C=C\C#C[C@]4(O)CC(=O)C(NC(=O)OC)=C3/C4=C\CSSC(CC(=O)O)C(=O)O)O[C@H](C)[C@@H](NO[C@H]3C[C@H](O)[C@H](SC(=O)c4c(C)c(I)c(O[C@@H]5O[C@@H](C)[C@H](O)[C@@H](OC)[C@H]5O)c(OC)c4OC)[C@@H](C)O3)[C@@H]2O)C[C@@H]1OC (stereo partly shown) [Example P6] | 5.93 | 0.492 | 1.21 | 1.14 | 1.24 | 1.35 | 0.568 | –
CCN[C@H]1CO[C@@H](O[C@H]2[C@H](O[C@H]3C#C/C=C\C#C[C@]4(O)CC(=O)C(NC(=O)OC)=C3/C4=C\CSSC(C)(C)c3ccc(N)cc3)O[C@H](C)[C@@H](NO[C@H]3C[C@H](O)[C@H](SC(=O)c4c(C)c(I)c(O[C@@H]5O[C@@H](C)[C@H](O)[C@@H](OC)[C@H]5O)c(OC)c4OC)[C@@H](C)O3)[C@@H]2O)C[C@@H]1OC [Example P27] | 0.02 | – | 0.002 | 0.006 | 0.04 | 0.003 | 0.004 | –
CCN(C(=O)Nc1ccc(CNC(=O)OCC2c3ccccc3-c3ccccc32)cc1)[C@H]1CO[C@@H](O[C@H]2[C@H](O[C@H]3C#C/C=C\C#C[C@]4(O)CC(=O)C(NC(=O)OC)=C3/C4=C\CSSC(C)(C)C)O[C@H](C)[C@@H](NO[C@H]3C[C@H](O)[C@H](SC(=O)c4c(C)c(I)c(O[C@@H]5O[C@@H](C)[C@H](O)[C@@H](OC)[C@H]5O)c(OC)c4OC)[C@@H](C)O3)[C@@H]2O)C[C@@H]1OC [Example P49] | 0.051 | – | 0.002 | 0.006 | 0.007 | < 0.1 | 0.003 | –
